{"source": "patent US5821231A", "about": "“CS-1 peptidomimetics, compositions and methods of using same” (Cytel Corporation, priority 1995, dated 1998)", "key": {"SJL/J mice": {"test_system": "SJL/J mice", "test": "Experimental autoimmune encephalomyelitis in mice", "assay_type": "in vivo", "conditions": "1 mg/mouse i.p. at days 8 and 9; FIG. 6; versus control compound", "experimental": "EAE was induced in female SJL/J mice (8 to 14 weeks old) by immunization on day zero with 50 μg of a compound corresponding to positions 139-151 of PLP emulsified in a 1:1 mixture of PBS and complete Freund's adjuvant (CFA). Each mouse was injected with 0.2 ml of the adjuvant emulsion subcutaneously (s.c.) at two sites in the hind flank. All mice received 10^7 killed Bordetella pertussis units in 100 μl were injected intravenously 24 to 72 hours later.\nMice were observed daily, beginning at day 8 for clinical signs of EAE, and disease was scored on a scale of 0-5 as: 0=no disease; 1=floppy tail; 2=moderate hind limb weakness; 3=paraparesis; 4=paraplegis with moderate forelimb weakness; 5=qualdriplegis or premoribund state.\nThe inhibitor compound, Compound ID No. 896.52, N-phenylacetyl-Leu-Asp-Phe-D-Pro-NH2 was administered intraperitoneally at 1 mg/mouse in 0.2 ml of incomplete Freund's adjuvant at days 8 and 9. A compound having a scrambled sequence [N-phenylacetyl-Asp-Leu-Phe-D-Pro-NH2 ] was similarly administered to serve as a control.\nSummed or averaged scores for clinical signs were plotted vs. time. The area under the resulting curves was calculated between day 8 and day 35 to calculate percentage inhibition of EAE by an inhibitor compound. The percent inhibition was calculated as follows:\n[…]"}, "[1]": {"test_system": "New Zealand white rabbits", "test": "Rabbit heterotopic cardiac allograft model", "assay_type": "in vivo", "from_the_text": "New Zealand white female rabbits (Charles River Lab., Saint Laurent, Quebec), between 3.5 and 4 kg underwent heterotopic cardiac transplant following an experimental protocol previously described [Alonso et al., Am. J. Pathol., 87:415-442 (1977); Clausell et al., Circulation, 89:2768-2779 (1994)]. The animals were unselected to favor an HLA-mismatch, the host rabbits were Pasteurella-free and the donors, outbred animals. Both host and donor rabbits were fed Purina 5321-0.5 percent cholesterol diet (Research Diets Inc., New Brunswick, N.J.), a strategy that has proven useful in accelerating the process of allograft arteriopathy [Alonso et al., Am, J. Pathol., 87:415-442 (1977)]. The diet was commenced four days prior to the transplant and continued in the recipient of the transplant until the completion of the experimental period.\nThe technique of heterotopic cardiac transplantation has been previously described [Clausell et al., Circulation, 89:2768-2779 (1994)]. Briefly, a vertical incision was performed in the anterior aspect of the neck of the recipient rabbit and the left common carotid artery and the ipsilateral external jugular vein were isolated. The cardiac allograft was placed in the neck by anastomosing the aorta end-to-side to the recipient's carotid artery and the pulmonary end-to-side to the recipient's external jugular vein, following a total period of ischemia for the donor hearts of approximately 30 minutes. Postoperative care was in compliance with the Principles of Laboratory Animal Care formulated by the Canadian National Society for Medical Research.\nBeginning the day of the transplant, the animals were randomized and treated with either scrambled compound (control group) at 1 mg/kg s.c. or the inhibitor compound at 1 mg/kg s.c. The doses of the compounds were empirically extrapolated to the in vivo model based on preliminary in vitro studies, of Table 1. No other immunosuppression therapy was administered. The grafts were monitored daily by palpation and maintained for 7 to 8 days, a previously described endpoint that was associated with myocardial rejection (impaired cardiac contractility) and development of the allograft arteriopathy in this model [Clausell et al., Circulation, 89:2768-2779 (1994)]. A total of fourteen animals were studied in the control (n=7) and treated (n=7) groups.\nThe animals were sacrificed using a lethal dose of euthanol (480 mg i.v.) (MTC Pharmaceutical, Cambridge, ON), host and donor hearts were removed, and the coronary arteries were perfused with saline through the aorta, followed by light fixation by perfusion with 2 percent paraformaldehyde (Sigma, St, Louis, Mo.). […] Different sections of the hearts were either saved in 10 percent formalin (BDH Inc., Toronto, ON) for light microscopy studies or immediately frozen in O.T.C. Compound Tissue Tek (Miles Inc., Elkart, Ind.) for specific immunohistochemistry studies.\nThree different paraffin-embedded tissue sections from host and donor hearts from both control and treated rabbits were stained by the Movat pentachrome method for light microscopy. Morphometric analysis was performed using a Zeiss microscope attached to a computer-generated video analysis system (Perceptics Inc., NuVision software), as described in Clausell et al., Circulation, 89:2768-2779 (1994). The number of vessels with intimal lesions were counted in all three heart sections from each animal studied and are expressed as a percentage of the total vessel number.\nIn the host hearts, 999 vessels in the control group and 1054 vessels in the treated group were analyzed. In the donor hearts, 827 vessels in the control group and 617 vessels in the treated group were analyzed. To determine the severity of intimal thickening, the diameter of each traceable vessel in all three sections was measured and the coronary arteries were categorized as small (diameter <100 μm), medium (diameter >100<500 μm) and large (diameter >500 μm). […]"}, "[2]": {"test_system": "Porcine peripheral blood lymphocytes", "test": "In vitro porcine allograft model: transendothelial lymphocyte migration", "assay_type": "cell-based", "conditions": "10 μg/ml in the medium; IL-1β-stimulated SMC", "experimental": "A similar study was carried out in vitro using porcine coronary artery endothelial cells (EC; as are present in the IEL) and smooth muscle cells (SMC; as are present in the medial layer of the artery). The two cell types were cultured using a membrane transwell system, with the SMC on the bottom layer in M-199 medium (Gibco Labs.). The SMC were stimulated with 100 ng/ml of interleukin-1β (IL-1β) for 24 hours prior to the start of the assay. Porcine peripheral blood lymphocytes were separated by Ficoll-Hypaque, radiolabeled and incubated overnight (about 18 hours) on the EC."}, "BALB/c mice": {"test_system": "BALB/c mice", "test": "Adoptive transfer delayed type hypersensitivity in mice (oxazolone)", "assay_type": "in vivo, mouse", "experimental": "An adoptive transfer delayed-type hypersensitivity murine model has been developed using splenic T cells primed to oxazolone. This model is described in Elices et al., Clin. Exp. Rheum., 11(Suppl. 8):577-580 (1993), whose procedures were followed here.\nThus, BALB/c mice were shaved on the belly and painted (50 μl on the belly and 5 μl on each paw) with three percent oxazolone in acetone/olive oil (4:1) at days zero and 1. At day 5, the mice were sacrificed, their spleens removed, and splenic T cells were obtained via nylon wool columns.\nNormal saline or saline containing 25×10^6 /animal of the oxazolone-immune T cells were separately injected into naive mice. The mice were then challenged by painting 10 μl of 2 percent oxazolone onto one ear each. All procedures were carried out under sterile conditions and in endotoxin-free buffers.\nPrior to challenge or saline injection, the mice were implanted with pumps that subcutaneously administered normal saline, normal saline containing the compound, Compound ID No. 896.52, N-phenylacetyl-Leu-Asp-Phe-D-Pro-NH2, or normal saline containing a compound with a scrambled sequence continually at 6 mg/kg/day for a 24-hour time period. The swelling diameter at the site of challenge or saline injection was measured with a microcaliper 24 hours thereafter.\nAn expanded study was carried out as described above except that a scrambled compound control was not used as a control for further inhibitor compounds of Table 1 with larger groups of mice. Statistical analyses were carried out versus injection of vehicle alone."}, "asthmatic sheep": {"test_system": "asthmatic sheep", "test": "Treatment of asthmatic sheep (Ascaris suum antigen, crossover)", "assay_type": "in vivo", "conditions": "nebulized 1 mg/kg; FIG. 7", "experimental": "Six asthmatic sheep were treated in a double blind cross-over study. […] This study was carried out generally as described in Abraham et al., J. Clin. Invest., 93:776-787 (1994).\nThe inhibitor compound used here was Compound ID No. 896.52, N-phenylacetyl-Leu-Asp-Phe-D-Pro-NH2, with a control compound that comprised the previously described compound having the same residues in a scrambled sequence. The vehicle for the nebulized compounds was phosphate-buffered saline. The compounds were administered at a dose of 1 mg/kg each, twice a day for three days prior to challenge, as well as 0.5 hours prior to and four hours post challenge on day 4. Because this was a crossover study, each animal received one or the other treatment, followed by a rest and then the other treatment. Each animal therefore served as its own control.\nPost challenge airway responsiveness was also assayed. Here, specific lung resistance, SRL, returned to baseline values 24 hours after challenge, however, the sheep were hyperresponsive to inhaled carbachol at that time."}, "[3]": {"test": "Retention of potency in PBS containing 10 percent mouse or human serum", "assay_type": "in vitro ADME", "conditions": "24 hours in PBS at 7.2-7.4 containing 10 percent mouse or human serum"}}, "note": "Square brackets hold non-standard residues; d marks the D form. Peptide text beside a SMILES is read from it. * marks the point of attachment. PhAc = O=C(Cc1ccccc1)*"}
{"compound": "CC(C)C[C@H](NC(=O)Cc1ccccc1)C(=O)N[C@@H](CC(=O)O)C(=O)N[C@@H](Cc1ccccc1)C(=O)N1CCC[C@@H]1C(N)=O", "note": "[896.52, N-phenylacetyl-Leu-Asp-Phe-D-Pro-NH2] (PhAc-LDF[dP]-NH2)", "values": [{"measurement": "clinical signs of EAE", "setting": "SJL/J mice", "result": "marked improvement in clinical signs"}, {"measurement": "Vessel Intimal Thickening: Percent of Vessels", "setting": "[1]; donor heart, 1 mg/kg s.c.", "result": 35, "unit": "%"}, {"measurement": "Vessel Intimal Thickening: Severity (Percent of Vessel area)", "setting": "[1]; donor heart, 1 mg/kg s.c.", "result": 16, "unit": "%"}, {"measurement": "Baseline of incidence of intimal thickening", "setting": "[1]; rabbit own host heart", "result": 12, "unit": "%"}, {"measurement": "Baseline of severity of intimal thickening", "setting": "[1]; rabbit own host heart", "result": 12, "unit": "%"}, {"measurement": "reduction of transendothelial lymphocyte migration", "setting": "[2]", "result": "about 30%"}, {"measurement": "Percent Inhibition (post-challenge swelling)", "setting": "BALB/c mice; expanded study, versus vehicle alone", "result": 36, "unit": "%"}, {"measurement": "reduction of inflammation (swelling diameter at challenge site)", "setting": "BALB/c mice; initial study, 6 mg/kg/day s.c. pump, 24-hour, FIG. 5", "result": "reduced this type of CS-1/VLA-4-mediated immunoinflammation"}, {"measurement": "change from baseline specific lung resistance (SRL) on challenge", "setting": "asthmatic sheep", "result": "less of a change from baseline specific lung resistance"}, {"measurement": "loss of potency in serum", "setting": "[3]", "result": "no loss of potency"}]}
